Patent publication US20230398227A1, “MEDICINE FOR TREATING CANCER” (CHIOME BIOSCIENCE INC., priority 2020, published 2023)

Tests used:
Hep3B xenograft tumor [1] = assay: Immunostaining for Ki-67 and cleaved caspase-3 in Hep3B xenograft tumor at 48 hours after administration; assay type: in vivo, NOD-SCID mice; conditions: HuBA-1-3D 1 mg/kg i.p., H3B-6527 50 mg/kg, FGF-401 10 mg/kg, BLU-554 30 mg/kg oral, alone or combined
Protocol: (§1) Hep3B cells (1×10^6 cells) were transplanted subcutaneously into the right flank of NOD-SCID mice. At the stage where the tumor volume reached 250 to 350 mm 3, these mice were divided into the following 8 groups of 6 mice each, and administered from the same day: • the Vehicle group; • the group receiving HuBA-1-3D (1 mg/kg); • the group receiving H3B-6527 (50 mg/kg); • the group receiving FGF-401 (10 mg/kg); • the group receiving BLU-554 (30 mg/kg); • the group receiving HuBA-1-3D (1 mg/kg)+H3B-6527 (50 mg/kg); • the group receiving HuBA-1-3D (1 mg/kg)+FGF-401 (10 mg/kg); and • the group receiving HuBA-1-3D (1 mg/kg)+BLU-554 (30 mg/kg).
(§2) HuBA-1-3D was intraperitoneally administered, while FGFR4 inhibitors (H3B-6527, FGF-401 and BLU-554) were orally administered. At 48 hours after administration, three mice in each group were sacrificed to excise their tumors, and the tumors were fixed in 10% formalin and then embedded in paraffin to prepare sections for immunostaining. In addition, tissue extracts were prepared for Western blotting.
Cancer cell proliferation and apoptosis in the Hep3B tumor at 48 hours after administration were analyzed by immunostaining in which Ki-67 or cleaved caspase-3 expression was used as an indicator.

[2] = tested on: human hepatic cancer cell line Hep3B xenograft; assay: Antitumor effect in Hep3B xenograft therapeutic model, HuBA-1-3D and H3B-6527; assay type: in vivo, NOD-scid mice; conditions: alone or combined
Description: The antitumor effect obtained upon combined administration of HuBA-1-3D antibody and H3B-6527 serving as a small molecule inhibitor against FGFR4 (Cancer Res. 2017 Dec. 15; 77(24):6999-7013) was studied in a xenograft therapeutic model based on the human hepatic cancer cell line Hep3B. • (1) Hep3B cells were transplanted subcutaneously into the right flank of NOD-scid mice (Day 0). At the stage where the mean tumor volume reached around 100 mm^3 (Day 14), the mice were divided into the following 6 groups, and administered from the same day for 11 days with HuBA-1-3D at a frequency of twice a week (Days 14, 18, 22 and 25) and/or with H3B-6527 twice a day (BID) and five times a week in a cycle of administration for 5 days and withdrawal for 2 days (Days 14, 15, 16, 17, 18, 21, 22, 23, 24 and 25): • the Vehicle group (N=8) • the group receiving H3B-6527 (50 mg/kg body weight, twice a day) (N=8); • the group receiving HuBA-1-3D (0.3 mg/kg body weight) (N=8); • the group receiving HuBA-1-3D (1 mg/kg body weight) (N=8); • the group receiving H3B-6527 (50 mg/kg body weight) and HuBA-1-3D (0.3 • mg/kg body weight) (N=8); and • the group receiving H3B-6527 (50 mg/kg body weight) and HuBA-1-3D (1 mg/kg body weight) (N=8).
The tumor volume was measured at a frequency of twice a week, and an animal whose tumor volume reached 1,500 mm^3 was excluded from observation.

Hep3B xenograft tumor [3] = assay: Western blotting of apoptosis markers and cyclin B1 in Hep3B xenograft tumor at 48 hours after administration; assay type: in vivo, NOD-SCID mice; conditions: three animals per group, HuBA-1-3D 1 mg/kg, H3B-6527 50 mg/kg, FGF-401 10 mg/kg, BLU-554 30 mg/kg
Protocol: as §1, §2
Subsequently, apoptosis (cleaved caspase-3 and Cleaved PARP) and cancer cell proliferation (cyclin B1) in the Hep3B xenograft tumor upon administration of each agent were analyzed by Western blotting.

FGFR4 = FGFR4 (Homo sapiens, UniProt P22455); conditions: reported in Mol Cancer Ther (2014); 13(11); 2547-58; read-out: tyrosine kinase inhibitory activity (IC50) against FGFR4; cited from earlier work
[4] = tested on: human hepatic cancer cell line Hep3B xenograft; assay: Antitumor effect in Hep3B xenograft therapeutic model, HuBA-1-3D and CH518324/Debio1347; assay type: in vivo, mice; conditions: alone or combined
Description: In each group, a mouse whose tumor volume exceeded 1,500 mm^3 was sacrificed at that point of time.

[5] = tested on: human hepatic cancer cell line Hep3B xenograft; assay: Antitumor effect in Hep3B xenograft therapeutic model, HuBA-1-3D and BLU-554; assay type: in vivo, mouse; conditions: alone or combined
Description: (§3) In an attempt to further verify the enhancing effect on antitumor activity upon combined administration of HuBA-1-3D antibody and FGFR4 inhibitor as in the case of the above examples, the antitumor effect obtained upon combined administration of BLU-554 and HuBA-1-3D was studied in a xenograft therapeutic model based on the human hepatic cancer cell line Hep3B, wherein BLU-554 inhibits FGFR4-specific tyrosine kinase activity by specifically binding to cysteine at amino acid position 552 of the ATP-binding region present in the region located at amino acid positions 545 to 562 of FGFR4 (Cancer Discov. 2019 December; 9(12):1696-1707), as in the case of H3B-6527 and FGF-401.
Hep3B cells (1×10^6 cells) were transplanted (Day 0), and at the point of time when the mean tumor volume exceeded 100 mm^3 (Day 14), animals were divided into the following 4 groups and administered from the same day: • the Vehicle group (N=8); • the group receiving BLU-554 (30 mg/kg body weight, twice a day) (N=8); • the group receiving HuBA-1-3D (1 mg/kg body weight) (N=8); and • the group receiving BLU-554 (30 mg/kg body weight) and HuBA-1-3D (1 mg/kg body weight) (N=8).
HuBA-1-3D was intraperitoneally administered once a day 4 times in total on Days 14, 17, 21 and 24, while BLU-554 was orally administered twice a day 10 times in total on Days 14, 15, 16, 17, 18, 21, 22, 23, 24 and 25. […]

[6] = tested on: human hepatic cancer cell line Hep3B xenograft; assay: Antitumor effect in Hep3B xenograft therapeutic model, HuBA-1-3D and FGF-401; assay type: in vivo, NOD-SCID mice; conditions: alone or combined
Description: as §3, with “Then, in” for “In”, “(FGF-401),” for “as in the case of the above examples,”, “FGF-401” for “BLU-554”, “(Mol. Cancer Ther.” for “(Cancer Discov.”, “18(12):2194-2206),” for “9(12):1696-1707),”, “H3B-6527.” for “H3B-6527 and FGF-401.”
Hep3B cells (1×10^6 cells) were transplanted subcutaneously into the right flank of NOD-SCID mice (Day 0). At the stage where the mean tumor volume exceeded 100 mm^3 (Day 14), the mice were divided into the following 6 groups, and administered from the same day: • the Vehicle group (N=8); • the group receiving FGF-401 (10 mg/kg body weight, twice a day) (N=8); • the group receiving HuBA-1-3D (0.3 mg/kg body weight) (N=8); • the group receiving HuBA-1-3D (1 mg/kg body weight) (N=8); • the group receiving FGF-401 (10 mg/kg body weight) and HuBA-1-3D (0.3 mg/kg body weight) (N=8); and • the group receiving FGF-401 (10 mg/kg body weight) and HuBA-1-3D (1 mg/kg body weight) (N=8).
HuBA-1-3D was intraperitoneally administered once a day 4 times in total on Days 14, 17, 21 and 24, while FGF-401 was orally administered twice a day 10 times in total on Days 14, 15, 16, 17, 18, 21, 22, 23, 24 and 25. The combined administration of HuBA-1-3D and FGF-401 was performed 4 times in total on Days 14, 17, 21 and 24. In each group, a mouse whose tumor volume exceeded 1,500 mm^3 was sacrificed at that point of time.

Chain of FGFR4 (P22455 22-802): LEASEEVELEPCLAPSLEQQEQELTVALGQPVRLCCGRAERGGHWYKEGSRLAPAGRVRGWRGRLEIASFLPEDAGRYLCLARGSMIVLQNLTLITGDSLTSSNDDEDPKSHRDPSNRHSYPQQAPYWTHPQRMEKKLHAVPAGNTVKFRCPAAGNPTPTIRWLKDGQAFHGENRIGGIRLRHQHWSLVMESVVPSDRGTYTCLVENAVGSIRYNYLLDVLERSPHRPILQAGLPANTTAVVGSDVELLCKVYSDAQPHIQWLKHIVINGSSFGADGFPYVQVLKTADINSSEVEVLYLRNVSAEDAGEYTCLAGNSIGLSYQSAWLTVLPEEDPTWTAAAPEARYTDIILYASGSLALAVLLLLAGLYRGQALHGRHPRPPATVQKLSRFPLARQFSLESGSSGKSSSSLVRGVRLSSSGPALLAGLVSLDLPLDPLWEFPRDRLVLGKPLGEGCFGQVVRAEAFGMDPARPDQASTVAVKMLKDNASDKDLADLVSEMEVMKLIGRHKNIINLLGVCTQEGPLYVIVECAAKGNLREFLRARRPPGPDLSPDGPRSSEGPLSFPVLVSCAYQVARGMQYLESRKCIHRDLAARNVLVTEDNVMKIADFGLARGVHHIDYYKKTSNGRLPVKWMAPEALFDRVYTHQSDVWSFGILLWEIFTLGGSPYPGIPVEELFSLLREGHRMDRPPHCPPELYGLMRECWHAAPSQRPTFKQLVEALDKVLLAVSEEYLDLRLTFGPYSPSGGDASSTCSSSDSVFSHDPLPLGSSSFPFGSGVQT

C=CC(=O)Nc1cc(N2CCN(CC)CC2)ccc1Nc1cc(N(C)C(=O)Nc2c(Cl)c(OC)cc(OC)c2Cl)ncn1 [H3B-6527, N-{2-[(6-{[(2,6-dichloro-3,5-dimethoxyphenyl)carbamoyl](methyl)amino}-4-pyrimidinyl)amino]-5-(4-ethyl-1-piperazinyl)phenyl}acrylamide]
apoptotic cells stained with cleaved caspase-3 in the tumor (Hep3B xenograft tumor [1]): not detected | proportion of cancer cells stained with Ki-67 compared to the Vehicle group (Hep3B xenograft tumor [1]): no change | tumor volume ([2]; Day 32 (7 days after completion of administration), H3B-6527 50 mg/kg twice a day, HuBA-1-3D 1 mg/kg twice a week): 647.8±146.2 mm^3 | T/C ([2]; Day 32, vs Vehicle, H3B-6527 50 mg/kg twice a day, HuBA-1-3D 1 mg/kg): 47% | tumor volume ([2]; Day 38 (13 days after final administration), H3B-6527 50 mg/kg, HuBA-1-3D 1 mg/kg): 1222.0±326.5 mm^3 | tumor presence / tumor disappearance at excision (animals) ([2]; Day 38, H3B-6527 50 mg/kg, HuBA-1-3D 1 mg/kg): all the 8 animals in each group were confirmed to have tumor | tumor weight ([2]; tumors excised on Day 38, H3B-6527 50 mg/kg, HuBA-1-3D 1 mg/kg): 1.010 ± 0.260 g | expression level of cyclin B1 (cell proliferation marker) compared to the Vehicle group (Hep3B xenograft tumor [3]): no difference | expression of apoptosis markers (Cleaved caspase-3 and cleaved PARP) (Hep3B xenograft tumor [3]): induced in none of the three animals

Cc1nc2ccc(-n3ncc(C(=O)c4cc5ccccc5[nH]4)c3N)cc2[nH]1 [CH518324/Debio1347]
IC50 (FGFR4): 290 nM | mean tumor volume ([4]; Day 31 (6 days after final administration), CH518324/Debio1347 50 mg/kg once a day oral, HuBA-1-3D 1 mg/kg i.p.): 673.8±271.8 mm^3 | T/C ([4]; Day 31, vs Vehicle, CH518324/Debio1347 50 mg/kg, HuBA-1-3D 1 mg/kg): 56.2%

C=CC(=O)N[C@H]1CCOC[C@H]1Nc1ncc2cc(-c3c(Cl)c(OC)cc(OC)c3Cl)ccc2n1 [BLU-554, N-[(3 S,4S)-3-[[6-(2,6-dichloro-3,5-dimethoxyphenyl)quinazolin-2-yl]amino]oxan-4-yl]prop-2-enamide]
mean tumor volume ([5]; Day 38 (13 days after final administration), BLU-554 30 mg/kg twice a day oral, HuBA-1-3D 1 mg/kg i.p.): 688.8±562.4 mm^3 | T/C ([5]; Day 38, vs Vehicle, BLU-554 30 mg/kg, HuBA-1-3D 1 mg/kg): 63.7% | apoptotic cells stained with cleaved caspase-3 in the tumor (Hep3B xenograft tumor [1]): not detected | proportion of cancer cells stained with Ki-67 compared to the Vehicle group (Hep3B xenograft tumor [1]): no change | expression level of cyclin B1 (cell proliferation marker) compared to the Vehicle group (Hep3B xenograft tumor [3]): no difference | expression of apoptosis markers (Cleaved caspase-3 and cleaved PARP) (Hep3B xenograft tumor [3]): induced in none of the three animals

COCCNc1cc(NC(=O)N2CCCc3cc(CN4CCN(C)CC4=O)c(C=O)nc32)ncc1C#N [FGF-401, N-[5-cyano-4-[(2-methoxyethyl)amino]-2-pyridinyl]-7-formyl-3,4-dihydro-6-[(4-methyl-2-oxo-1-piperazinyl)methyl]-1,8-naphthyridine-1(2H)-carboxamide]
apoptotic cells stained with cleaved caspase-3 in the tumor (Hep3B xenograft tumor [1]): not detected | proportion of cancer cells stained with Ki-67 compared to the Vehicle group (Hep3B xenograft tumor [1]): no change | tumor volume ([6]; Day 28 (3 days after final administration), FGF-401 10 mg/kg twice a day oral, HuBA-1-3D 1 mg/kg i.p.): 388.9±94.8 mm^3 | T/C ([6]; Day 28, vs Vehicle, FGF-401 10 mg/kg, HuBA-1-3D 1 mg/kg): 56.8% | antitumor effect compared to tumor volume in the Vehicle group ([6]; Day 35 (10 days after final administration), FGF-401 10 mg/kg, HuBA-1-3D 1 mg/kg, Dunnett): significant antitumor effect | expression level of cyclin B1 (cell proliferation marker) compared to the Vehicle group (Hep3B xenograft tumor [3]): no difference | expression of apoptosis markers (Cleaved caspase-3 and cleaved PARP) (Hep3B xenograft tumor [3]): induced in none of the three animals
